Laboratory results as given in patent publication US9227971B2, “Pyrazolo[1,5-a]pyrimidine compounds as mTOR inhibitors” (Merck Sharp & Dohme Corp., priority 2010, dated 2016).

Assays:
[1] = tested on: phosphorylated AKT Ser473 (pAKT S473), mTORC2 activity, PC3 cells; assay: mTOR target engagement assay, immunofluorescent cell-based, pAKT S473 readout (mTORC2 activity); conditions: Homo sapiens, PC-3, PC3 cells, compound treatment ninety minutes at 37° C.
How it was run: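 After blocking, cells were stained overnight at 4 °C with anti-pAKT S473 antibody, then a fluorescent secondary; inhibition was read as reduced fluorescence intensity.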

[2] = tested on: phosphorylated 4E-BP1 Thr37/46 (p4E-BP1 Thr37/46), mTORC1 activity, PC3 cells; assay: mTOR target engagement assay, immunofluorescent cell-based, p4E-BP1 Thr37/46 readout (mTORC1 activity); conditions: Homo sapiens, PC-3, PC3 cells, compound treatment ninety minutes at 37° C.; read-out: p4E-BP1 Thr37/46 IC50
How it was run: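 Cell-based immunofluorescence in PC3 cells: serially diluted compounds (0.25% DMSO, 5% FBS) applied for ninety minutes at 37° C before fixation and overnight 4° C staining of p4E-BP1 Thr37/46. Untreated DMSO wells set maximal phosphorylation; IC50 obtained by logistic fitting.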

SMILES | IC50 [1] [nM] | IC50 [2] [nM]
CC(=O)c1c([C@@H]2C[C@H]3CC[C@@H](C2)N3C(=O)c2nnc[nH]2)nc2c(-c3ccc(-c4c(F)cccc4F)nc3)cnn2c1N [Compound 1.1.147, 1-(5-((1R,3s,5S)-8-(4H-1,2,4-triazole-3-carbonyl)-8-azabicyclo[3.2.1]octan-3-yl)-7-amino-3-(6-(2,6-difluorophenyl)pyridin-3-yl)pyrazolo[1,5-a]pyrimidin-6-yl)ethanone] | 1 to 100 | 1 to 100
CC(=O)c1c([C@@H]2C[C@H]3CC[C@@H](C2)N3C(=O)c2nnc[nH]2)nc2c(-c3ccc(-c4ccc(F)cc4F)nc3)cnn2c1N [Compound 1.1.148, 1-(5-((1R,3s,5S)-8-(4H-1,2,4-triazole-3-carbonyl)-8-azabicyclo[3.2.1]octan-3-yl)-7-amino-3-(6-(2,4-difluorophenyl)pyridin-3-yl)pyrazolo[1,5-a]pyrimidin-6-yl)ethanone] | 1 to 100 | 1 to 100
CC(=O)c1c([C@@H]2C[C@H]3CC[C@@H](C2)N3C(=O)c2nnc[nH]2)nc2c(-c3ccc(-c4cnn(C)c4)nc3)cnn2c1N [Compound 1.1.149, 1-(5-((1R,3s,5S)-8-(4H-1,2,4-triazole-3-carbonyl)-8-azabicyclo[3.2.1]octan-3-yl)-7-amino-3-(6-(1-methyl-1H-pyrazol-4-yl)pyridin-3-yl)pyrazolo[1,5-a]pyrimidin-6-yl)ethanone] | 1 to 100 | 1 to 100
CC(=O)c1c([C@@H]2C[C@H]3CC[C@@H](C2)N3C(=O)c2nnc[nH]2)nc2c(-c3cnn(C)c3)cnn2c1N [Compound 1.1.151, 1-(5-((1R,3s,5S)-8-(4H-1,2,4-triazole-3-carbonyl)-8-azabicyclo[3.2.1]octan-3-yl)-7-amino-3-(1-methyl-1H-pyrazol-4-yl)pyrazolo[1,5-a]pyrimidin-6-yl)ethanone] | 100 to 1000 | 100 to 1000
CC(=O)c1c([C@@H]2C[C@H]3CC[C@@H](C2)N3C(=O)c2nnc[nH]2)nc2c(-c3cnn(CCO)c3)cnn2c1N [Compound 1.1.155, 1-(5-((1R,3s,5S)-8-(4H-1,2,4-triazole-3-carbonyl)-8-azabicyclo[3.2.1]octan-3-yl)-7-amino-3-(1-(2-hydroxyethyl)-1H-pyrazol-4-yl)pyrazolo[1,5-a]pyrimidin-6-yl)ethanone] | 1000 to 10000 | 1000 to 10000
CC(=O)c1c([C@@H]2C[C@H]3CC[C@@H](C2)N3C(=O)c2cc(N)n[nH]2)nc2c(-c3ccc(-c4ccc(F)cc4)nc3)cnn2c1N [Compound 1.1.156, 1-(7-amino-5-((1R,3s,5S)-8-(3-amino-1H-pyrazole-5-carbonyl)-8-azabicyclo[3.2.1]octan-3-yl)-3-(6-(4-fluorophenyl)pyridin-3-yl)pyrazolo[1,5-a]pyrimidin-6-yl)ethanone] | 1 to 100 | 1 to 100
CC(=O)c1c([C@@H]2C[C@H]3CC[C@@H](C2)N3C(=O)CO)nc2c(-c3ccc(-c4ccc(F)cc4)nc3)cnn2c1N [Compound 1.1.159, 1-((1R,3s,5S)-3-(6-acetyl-7-amino-3-(6-(4-fluorophenyl)pyridin-3-yl)pyrazolo[1,5-a]pyrimidin-5-yl)-8-azabicyclo[3.2.1]octan-8-yl)-2-hydroxyethanone] | 100 to 1000 | 100 to 1000
CC(=O)c1c([C@@H]2C[C@H]3CC[C@@H](C2)N3C(=O)c2nnc(C)[nH]2)nc2c(-c3ccc(-c4ccc(F)cc4)nc3)cnn2c1N [Compound 1.1.160, 1-(7-amino-3-(6-(4-fluorophenyl)pyridin-3-yl)-5-((1R,3s,5S)-8-(5-methyl-4H-1,2,4-triazole-3-carbonyl)-8-azabicyclo[3.2.1]octan-3-yl)pyrazolo[1,5-a]pyrimidin-6-yl)ethanone] | 1 to 100 | 100 to 1000
CC(=O)c1c([C@@H]2C[C@H]3CC[C@@H](C2)N3C(=O)c2nnc[nH]2)nc2c(-c3cnn(-c4ccccn4)c3)cnn2c1N [Compound 1.1.161, 1-(5-((1R,3s,5S)-8-(4H-1,2,4-triazole-3-carbonyl)-8-azabicyclo[3.2.1]octan-3-yl)-7-amino-3-(1-(pyridin-2-yl)-1H-pyrazol-4-yl)pyrazolo[1,5-a]pyrimidin-6-yl)ethanone] | 100 to 1000 | 100 to 1000
CC(=O)c1c([C@@H]2C[C@H]3CC[C@@H](C2)N3C(=O)CO)nc2c(-c3cnn(-c4ccccn4)c3)cnn2c1N [Compound 1.1.162, 1-((1R,3s,5S)-3-(6-acetyl-7-amino-3-(1-(pyridin-2-yl)-1H-pyrazol-4-yl)pyrazolo[1,5-a]pyrimidin-5-yl)-8-azabicyclo[3.2.1]octan-8-yl)-2-hydroxyethanone] | 100 to 1000 | 100 to 1000
CC(=O)c1c([C@@H]2C[C@H]3CC[C@@H](C2)N3C(=O)c2nnc[nH]2)nc2c(-c3ccc(-c4ccc(F)cc4)nc3)cnn2c1N [Compound 1.1.163, 1-(5-((1R,3s,5S)-8-(4H-1,2,4-triazole-3-carbonyl)-8-azabicyclo[3.2.1]octan-3-yl)-7-amino-3-(6-(4-fluorophenyl)pyridin-3-yl)pyrazolo[1,5-a]pyrimidin-6-yl)ethanone] | 1 to 100 | 100 to 1000
CC(=O)c1c([C@@H]2C[C@H]3CC[C@@H](C2)N3C(=O)CO)nc2c(-c3ccc(-c4ccc(F)cc4F)nc3)cnn2c1N [Compound 1.1.164, 1-((1R,3s,5S)-3-(6-acetyl-7-amino-3-(6-(2,4-difluorophenyl)pyridin-3-yl)pyrazolo[1,5-a]pyrimidin-5-yl)-8-azabicyclo[3.2.1]octan-8-yl)-2-hydroxyethanone] | 1 to 100 | 100 to 1000
CC(=O)c1c([C@@H]2C[C@H]3CC[C@@H](C2)N3C(=O)c2nnc(C)[nH]2)nc2c(-c3ccc(-c4ccc(F)cc4F)nc3)cnn2c1N [Compound 1.1.165, 1-(7-amino-3-(6-(2,4-difluorophenyl)pyridin-3-yl)-5-((1R,3s,5S)-8-(5-methyl-4H-1,2,4-triazole-3-carbonyl)-8-azabicyclo[3.2.1]octan-3-yl)pyrazolo[1,5-a]pyrimidin-6-yl)ethanone] | 1 to 100 | 1 to 100
CC(=O)c1c([C@@H]2C[C@H]3CC[C@@H](C2)N3C(=O)c2cc(N)n[nH]2)nc2c(-c3ccc(-c4ccc(F)cc4F)nc3)cnn2c1N [Compound 1.1.166, 1-(7-amino-5-((1R,3s,5S)-8-(3-amino-1H-pyrazole-5-carbonyl)-8-azabicyclo[3.2.1]octan-3-yl)-3-(6-(2,4-difluorophenyl)pyridin-3-yl)pyrazolo[1,5-a]pyrimidin-6-yl)ethanone] | 1 to 100 | 1 to 100
CC(=O)c1c([C@@H]2C[C@H]3CC[C@@H](C2)N3C(=O)c2ccn[nH]2)nc2c(-c3ccc(-c4ccc(F)cc4F)nc3)cnn2c1N [Compound 1.1.167, 1-(5-((1R,3s,5S)-8-(1H-pyrazole-5-carbonyl)-8-azabicyclo[3.2.1]octan-3-yl)-7-amino-3-(6-(2,4-difluorophenyl)pyridin-3-yl)pyrazolo[1,5-a]pyrimidin-6-yl)ethanone] | 1 to 100 | 100 to 1000
CC(=O)c1c([C@@H]2C[C@H]3CC[C@@H](C2)N3C(=O)[C@@H](C)O)nc2c(-c3ccc(-c4ccc(F)cc4F)nc3)cnn2c1N [Compound 1.1.168, (R)-1-((1R,3S,5S)-3-(6-acetyl-7-amino-3-(6-(2,4-difluorophenyl)pyridin-3-yl)pyrazolo[1,5-a]pyrimidin-5-yl)-8-azabicyclo[3.2.1]octan-8-yl)-2-hydroxypropan-1-one] | 100 to 1000 | 100 to 1000
CC(=O)c1c([C@@H]2C[C@H]3CC[C@@H](C2)N3C(N)=O)nc2c(-c3ccc(-c4ccc(F)cc4F)nc3)cnn2c1N [Compound 1.1.169, (1R,3s,5S)-3-(6-acetyl-7-amino-3-(6-(2,4-difluorophenyl)pyridin-3-yl)pyrazolo[1,5-a]pyrimidin-5-yl)-8-azabicyclo[3.2.1]octane-8-carboxamide] | 1 to 100 | 1 to 100
CC(=O)c1c([C@@H]2C[C@H]3CC[C@@H](C2)N3C(=O)CO)nc2c(-c3ccc(-c4c(F)cccc4F)nc3)cnn2c1N [Compound 1.1.171, 1-((1R,3s,5S)-3-(6-acetyl-7-amino-3-(6-(2,6-difluorophenyl)pyridin-3-yl)pyrazolo[1,5-a]pyrimidin-5-yl)-8-azabicyclo[3.2.1]octan-8-yl)-2-hydroxyethanone] | 1 to 100 | 1 to 100
CC(=O)c1c([C@@H]2C[C@H]3CC[C@@H](C2)N3C(=O)CO)nc2c(-c3ccc(-c4ccccc4F)nc3)cnn2c1N [Compound 1.1.172, 1-((1R,3s,5S)-3-(6-acetyl-7-amino-3-(6-(2-fluorophenyl)pyridin-3-yl)pyrazolo[1,5-a]pyrimidin-5-yl)-8-azabicyclo[3.2.1]octan-8-yl)-2-hydroxyethanone] | 1 to 100 | 1 to 100
CC(=O)c1c([C@@H]2C[C@H]3CC[C@@H](C2)N3C(=O)c2nnc(C)[nH]2)nc2c(-c3ccc(-c4ccccc4F)nc3)cnn2c1N [Compound 1.1.173, 1-(7-amino-3-(6-(2-fluorophenyl)pyridin-3-yl)-5-((1R,3s,5S)-8-(5-methyl-4H-1,2,4-triazole-3-carbonyl)-8-azabicyclo[3.2.1]octan-3-yl)pyrazolo[1,5-a]pyrimidin-6-yl)ethanone] | 1 to 100 | 1 to 100
CC(=O)c1c([C@@H]2C[C@H]3CC[C@@H](C2)N3C(N)=O)nc2c(-c3ccc(-c4ccccc4F)nc3)cnn2c1N [Compound 1.1.174, (1R,3s,5S)-3-(6-acetyl-7-amino-3-(6-(2-fluorophenyl)pyridin-3-yl)pyrazolo[1,5-a]pyrimidin-5-yl)-8-azabicyclo[3.2.1]octane-8-carboxamide] | 1 to 100 | 1 to 100
